Reference: ChEMBL document CHEMBL3102773, “The synthesis and comparative receptor binding affinities of novel, isomeric pyridoindolobenzazepine scaffolds” (Bioorg Med Chem Lett, 2014)
“And” between values parts separate entries of the source, which are not always exact repeats. Equal entries are not always repeated. Structures can show the parent of a compound that is named as a salt.

What was measured:
[1] = target: T1, Muscarinic acetylcholine receptor M2 (Homo sapiens, UniProt P08172); test: Binding affinity to muscarinic M2 receptor (unknown origin) by radioligand displacement assay
T1 sequence (P08172 whole entry): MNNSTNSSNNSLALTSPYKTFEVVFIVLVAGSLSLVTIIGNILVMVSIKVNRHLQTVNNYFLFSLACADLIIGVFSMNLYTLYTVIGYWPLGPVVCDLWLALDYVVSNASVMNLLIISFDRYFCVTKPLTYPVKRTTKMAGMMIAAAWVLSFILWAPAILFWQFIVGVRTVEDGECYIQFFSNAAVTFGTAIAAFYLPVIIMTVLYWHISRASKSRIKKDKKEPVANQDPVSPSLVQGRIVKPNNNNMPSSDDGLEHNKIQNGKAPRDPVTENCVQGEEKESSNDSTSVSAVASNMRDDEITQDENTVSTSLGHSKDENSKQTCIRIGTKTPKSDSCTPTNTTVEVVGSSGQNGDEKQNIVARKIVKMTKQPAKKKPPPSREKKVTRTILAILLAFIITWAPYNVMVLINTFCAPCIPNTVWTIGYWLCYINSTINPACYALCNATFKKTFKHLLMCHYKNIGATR

[2] = target: Muscarinic acetylcholine receptor M3 (Homo sapiens, UniProt P20309)
Description: Displacement of [3H]QNB from muscarinic M3 receptor (unknown origin)

[3] = target: Muscarinic acetylcholine receptor M1 (Homo sapiens, UniProt P11229)
Description: Displacement of [3H]QNB from muscarinic M1 receptor (unknown origin)

Mu-type opioid receptor = Mu-type opioid receptor (Homo sapiens, UniProt P35372); test: Binding affinity to mu opioid receptor (unknown origin) by radioligand displacement assay
Mu-type opioid receptor, sequence (P35372 whole entry): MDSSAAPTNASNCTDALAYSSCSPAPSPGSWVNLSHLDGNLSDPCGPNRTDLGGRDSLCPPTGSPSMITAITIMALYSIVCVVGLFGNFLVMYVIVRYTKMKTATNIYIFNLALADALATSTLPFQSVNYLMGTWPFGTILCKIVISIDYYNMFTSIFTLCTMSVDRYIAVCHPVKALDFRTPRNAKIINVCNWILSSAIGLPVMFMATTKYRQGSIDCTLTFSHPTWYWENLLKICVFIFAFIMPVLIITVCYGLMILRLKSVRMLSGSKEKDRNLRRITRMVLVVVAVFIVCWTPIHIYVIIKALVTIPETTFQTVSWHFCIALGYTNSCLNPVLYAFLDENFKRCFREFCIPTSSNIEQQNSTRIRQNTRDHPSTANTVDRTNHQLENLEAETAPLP

[4] = target: Delta-type opioid receptor (Homo sapiens, UniProt P41143); test: Binding affinity to delta opioid receptor (unknown origin) by radioligand displacement assay
Delta-type opioid receptor, sequence (P41143 whole entry): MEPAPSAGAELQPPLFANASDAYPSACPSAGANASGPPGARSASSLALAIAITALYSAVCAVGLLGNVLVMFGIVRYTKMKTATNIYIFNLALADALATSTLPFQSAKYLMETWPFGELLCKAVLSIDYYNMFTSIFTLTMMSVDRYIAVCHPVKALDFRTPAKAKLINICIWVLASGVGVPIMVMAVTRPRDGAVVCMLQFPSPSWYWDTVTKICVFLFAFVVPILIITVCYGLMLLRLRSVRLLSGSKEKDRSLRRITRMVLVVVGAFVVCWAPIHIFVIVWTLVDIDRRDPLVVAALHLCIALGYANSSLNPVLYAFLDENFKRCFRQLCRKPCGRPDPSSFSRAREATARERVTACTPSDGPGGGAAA

[5] = target: Kappa-type opioid receptor (Homo sapiens, UniProt P41145); test: Displacement of [3H]U69593 from kappa opioid receptor (unknown origin)
Histamine H3 receptor = Histamine H3 receptor (Homo sapiens, UniProt Q9Y5N1); test: Binding affinity to histamine H3 receptor (unknown origin) by radioligand displacement assay
Histamine H3 receptor, sequence (Q9Y5N1 whole entry): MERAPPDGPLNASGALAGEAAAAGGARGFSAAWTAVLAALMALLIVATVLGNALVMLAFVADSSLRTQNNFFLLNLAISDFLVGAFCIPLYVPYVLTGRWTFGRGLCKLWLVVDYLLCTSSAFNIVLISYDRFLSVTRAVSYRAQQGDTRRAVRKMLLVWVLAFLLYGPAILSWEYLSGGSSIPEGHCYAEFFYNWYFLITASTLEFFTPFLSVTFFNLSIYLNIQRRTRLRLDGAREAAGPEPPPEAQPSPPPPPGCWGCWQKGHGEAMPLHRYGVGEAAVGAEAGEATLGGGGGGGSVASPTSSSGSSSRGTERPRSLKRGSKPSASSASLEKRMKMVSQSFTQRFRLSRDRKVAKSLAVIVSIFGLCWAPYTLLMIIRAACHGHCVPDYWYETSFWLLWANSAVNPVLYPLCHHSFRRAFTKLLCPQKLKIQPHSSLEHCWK

[6] = target: Sigma non-opioid intracellular receptor 1 (Homo sapiens, UniProt Q99720); test: Displacement of [3H](+)Pentazocine from sigma 1 receptor (unknown origin)
Histamine H1 receptor = Histamine H1 receptor (Homo sapiens, UniProt P35367)
Description: Displacement of [3H]Pyrilamine from histamine H1 receptor (unknown origin)

[7] = target: Beta-2 adrenergic receptor (Homo sapiens, UniProt P07550); test: Binding affinity to adrenergic beta2 receptor (unknown origin) by radioligand displacement assay
Beta-2 adrenergic receptor, sequence (P07550 whole entry): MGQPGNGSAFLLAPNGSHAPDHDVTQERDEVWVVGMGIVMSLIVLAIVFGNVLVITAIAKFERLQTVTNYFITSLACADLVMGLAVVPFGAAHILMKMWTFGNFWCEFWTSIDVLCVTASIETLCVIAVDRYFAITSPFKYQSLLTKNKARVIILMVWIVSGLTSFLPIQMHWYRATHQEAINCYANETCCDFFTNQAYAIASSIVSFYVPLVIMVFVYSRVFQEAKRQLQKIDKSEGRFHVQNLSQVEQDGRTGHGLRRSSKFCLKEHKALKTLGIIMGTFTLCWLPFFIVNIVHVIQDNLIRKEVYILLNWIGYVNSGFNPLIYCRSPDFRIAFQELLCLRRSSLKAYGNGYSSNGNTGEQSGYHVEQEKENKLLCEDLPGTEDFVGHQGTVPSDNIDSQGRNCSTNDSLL

[8] = target: Beta-3 adrenergic receptor (Homo sapiens, UniProt P13945); test: Binding affinity to adrenergic beta3 receptor (unknown origin) by radioligand displacement assay
Beta-3 adrenergic receptor, sequence (P13945 whole entry): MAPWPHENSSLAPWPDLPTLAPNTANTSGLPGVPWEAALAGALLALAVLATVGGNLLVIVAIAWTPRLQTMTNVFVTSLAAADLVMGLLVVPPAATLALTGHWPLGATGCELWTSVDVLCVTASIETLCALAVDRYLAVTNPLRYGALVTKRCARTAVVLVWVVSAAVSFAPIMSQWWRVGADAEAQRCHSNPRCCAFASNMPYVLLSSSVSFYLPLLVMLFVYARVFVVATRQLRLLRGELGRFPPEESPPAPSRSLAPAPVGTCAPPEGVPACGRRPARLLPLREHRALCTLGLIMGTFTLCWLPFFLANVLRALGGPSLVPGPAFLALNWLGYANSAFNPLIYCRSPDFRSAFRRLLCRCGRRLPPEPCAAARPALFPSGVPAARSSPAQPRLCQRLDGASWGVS

[9] = target: Beta-1 adrenergic receptor (Homo sapiens, UniProt P08588); test: Binding affinity to adrenergic beta1 receptor (unknown origin) by radioligand displacement assay
Beta-1 adrenergic receptor, sequence (P08588 whole entry): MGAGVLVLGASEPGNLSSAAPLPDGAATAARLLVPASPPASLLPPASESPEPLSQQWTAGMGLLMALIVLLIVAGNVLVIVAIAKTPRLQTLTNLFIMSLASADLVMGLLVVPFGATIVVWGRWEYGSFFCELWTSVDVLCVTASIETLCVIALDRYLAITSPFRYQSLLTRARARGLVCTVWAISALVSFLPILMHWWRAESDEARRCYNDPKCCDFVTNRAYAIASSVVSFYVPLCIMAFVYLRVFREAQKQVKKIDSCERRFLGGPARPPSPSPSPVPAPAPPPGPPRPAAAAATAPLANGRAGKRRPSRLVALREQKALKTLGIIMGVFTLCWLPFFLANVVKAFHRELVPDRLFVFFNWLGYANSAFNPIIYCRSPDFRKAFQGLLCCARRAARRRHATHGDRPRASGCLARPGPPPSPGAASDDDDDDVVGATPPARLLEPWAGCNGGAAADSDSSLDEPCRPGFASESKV

[10] = target: Alpha-2B adrenergic receptor (Homo sapiens, UniProt P18089)
Description: Displacement of [125I]Clonidine from adrenergic alpha2B receptor (unknown origin)

[11] = target: Alpha-1D adrenergic receptor (Homo sapiens, UniProt P25100)
[12] = target: Alpha-1A adrenergic receptor (Homo sapiens, UniProt P35348)
D(2) dopamine receptor = D(2) dopamine receptor (Homo sapiens, UniProt P14416); test: Displacement of [3H]N-Methylspiperone from dopamine D2 receptor (unknown origin)
D(1A) dopamine receptor = D(1A) dopamine receptor (Homo sapiens, UniProt P21728); test: Binding affinity to dopamine D1 receptor (unknown origin) by radioligand displacement assay
D(1A) dopamine receptor, sequence (P21728 whole entry): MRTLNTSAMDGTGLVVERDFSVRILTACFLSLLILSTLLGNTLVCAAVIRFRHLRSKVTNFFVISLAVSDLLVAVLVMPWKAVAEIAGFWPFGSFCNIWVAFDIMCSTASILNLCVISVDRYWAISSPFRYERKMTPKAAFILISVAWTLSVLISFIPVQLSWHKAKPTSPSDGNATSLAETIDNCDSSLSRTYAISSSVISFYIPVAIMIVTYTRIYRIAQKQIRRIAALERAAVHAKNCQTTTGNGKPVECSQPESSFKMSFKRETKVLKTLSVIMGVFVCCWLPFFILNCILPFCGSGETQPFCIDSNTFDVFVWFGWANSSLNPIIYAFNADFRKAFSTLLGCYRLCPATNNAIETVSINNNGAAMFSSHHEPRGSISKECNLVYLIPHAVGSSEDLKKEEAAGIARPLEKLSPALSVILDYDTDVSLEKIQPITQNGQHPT

[13] = target: 5-hydroxytryptamine receptor 2A (Homo sapiens, UniProt P28223)
Description: Displacement of [3H]Ketanserin from 5-HT2A receptor (unknown origin)

[14] = target: 5-hydroxytryptamine receptor 1D (Homo sapiens, UniProt P28221); test: Displacement of [3H]5-CT from 5-HT1D receptor (unknown origin)
[15] = target: 5-hydroxytryptamine receptor 1A (Homo sapiens, UniProt P08908); test: Displacement of [3H]WAY100635 from 5-HT1A receptor (unknown origin)
[16] = target: Sodium-dependent serotonin transporter (Homo sapiens, UniProt P31645)
[17] = target: Sodium-dependent noradrenaline transporter (Homo sapiens, UniProt P23975); test: Displacement of [3H]Nisoxetine from norepinephrine transporter (unknown origin)
Sodium-dependent noradrenaline transporter, sequence (P23975 whole entry): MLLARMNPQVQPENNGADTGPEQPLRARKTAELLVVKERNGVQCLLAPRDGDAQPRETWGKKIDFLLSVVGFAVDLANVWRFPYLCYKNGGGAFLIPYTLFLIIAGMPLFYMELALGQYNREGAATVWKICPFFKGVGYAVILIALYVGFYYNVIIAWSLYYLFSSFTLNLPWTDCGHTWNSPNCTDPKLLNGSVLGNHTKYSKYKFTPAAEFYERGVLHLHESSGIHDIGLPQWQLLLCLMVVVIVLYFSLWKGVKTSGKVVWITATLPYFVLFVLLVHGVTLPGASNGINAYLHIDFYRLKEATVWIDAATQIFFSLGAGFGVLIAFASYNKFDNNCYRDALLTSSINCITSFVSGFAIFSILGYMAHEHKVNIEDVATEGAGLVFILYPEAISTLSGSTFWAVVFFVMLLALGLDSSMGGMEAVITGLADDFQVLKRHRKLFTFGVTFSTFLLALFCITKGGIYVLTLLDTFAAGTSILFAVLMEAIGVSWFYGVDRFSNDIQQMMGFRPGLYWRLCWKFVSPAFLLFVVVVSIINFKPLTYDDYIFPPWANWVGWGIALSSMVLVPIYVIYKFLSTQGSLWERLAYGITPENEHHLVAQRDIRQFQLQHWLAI

[18] = target: Sodium-dependent dopamine transporter (Homo sapiens, UniProt Q01959); test: Binding affinity to dopamine transporter (unknown origin) by radioligand displacement assay
Sodium-dependent dopamine transporter, sequence (Q01959 whole entry): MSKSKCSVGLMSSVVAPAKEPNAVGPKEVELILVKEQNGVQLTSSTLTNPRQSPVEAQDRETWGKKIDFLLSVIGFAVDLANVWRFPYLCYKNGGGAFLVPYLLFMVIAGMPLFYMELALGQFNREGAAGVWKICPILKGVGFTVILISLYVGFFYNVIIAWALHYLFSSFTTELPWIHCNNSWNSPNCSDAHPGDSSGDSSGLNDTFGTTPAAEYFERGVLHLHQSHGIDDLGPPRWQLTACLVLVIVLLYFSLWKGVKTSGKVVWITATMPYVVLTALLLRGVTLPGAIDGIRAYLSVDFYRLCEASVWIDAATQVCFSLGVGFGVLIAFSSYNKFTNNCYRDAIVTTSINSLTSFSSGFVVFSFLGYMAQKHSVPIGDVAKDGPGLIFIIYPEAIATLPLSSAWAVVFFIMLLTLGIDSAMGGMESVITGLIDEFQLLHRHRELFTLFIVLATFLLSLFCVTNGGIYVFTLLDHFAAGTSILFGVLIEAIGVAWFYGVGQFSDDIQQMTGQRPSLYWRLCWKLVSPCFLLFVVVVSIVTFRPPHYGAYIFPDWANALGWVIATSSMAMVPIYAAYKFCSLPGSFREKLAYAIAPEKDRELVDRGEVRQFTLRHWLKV

[19] = target: T2, Muscarinic acetylcholine receptor M4 (Homo sapiens, UniProt P08173); test: Binding affinity to muscarinic M4 receptor (unknown origin) by radioligand displacement assay
T2 sequence (P08173 whole entry): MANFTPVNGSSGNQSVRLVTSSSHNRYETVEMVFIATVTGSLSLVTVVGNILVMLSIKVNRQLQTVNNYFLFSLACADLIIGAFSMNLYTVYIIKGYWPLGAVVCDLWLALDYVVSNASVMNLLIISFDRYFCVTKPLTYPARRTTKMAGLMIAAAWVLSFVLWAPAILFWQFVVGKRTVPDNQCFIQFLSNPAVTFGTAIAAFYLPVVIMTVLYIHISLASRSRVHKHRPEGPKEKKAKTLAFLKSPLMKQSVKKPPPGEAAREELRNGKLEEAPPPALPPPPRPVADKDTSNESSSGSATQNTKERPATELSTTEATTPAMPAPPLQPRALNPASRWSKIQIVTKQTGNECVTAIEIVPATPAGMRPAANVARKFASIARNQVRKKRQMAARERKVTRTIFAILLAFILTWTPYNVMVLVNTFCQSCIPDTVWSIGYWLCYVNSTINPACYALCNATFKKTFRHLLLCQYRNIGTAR

Histamine H2 receptor = Histamine H2 receptor (Homo sapiens, UniProt P25021)
Histamine H2 receptor, sequence (P25021 whole entry): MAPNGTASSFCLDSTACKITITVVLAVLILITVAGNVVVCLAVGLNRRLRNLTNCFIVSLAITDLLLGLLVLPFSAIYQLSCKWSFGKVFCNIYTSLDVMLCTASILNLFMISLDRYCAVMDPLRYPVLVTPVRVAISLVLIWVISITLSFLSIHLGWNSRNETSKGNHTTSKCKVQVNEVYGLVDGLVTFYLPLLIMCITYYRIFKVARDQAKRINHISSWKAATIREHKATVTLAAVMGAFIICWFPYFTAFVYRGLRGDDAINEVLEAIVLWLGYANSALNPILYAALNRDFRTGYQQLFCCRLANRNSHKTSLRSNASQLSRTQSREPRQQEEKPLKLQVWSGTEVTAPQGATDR

[20] = target: Alpha-2C adrenergic receptor (Homo sapiens, UniProt P18825)
Description: Displacement of [125I]Clonidine from adrenergic alpha2C receptor (unknown origin)

[21] = target: Alpha-2A adrenergic receptor (Homo sapiens, UniProt P08913)
Description: Displacement of [125I]Clonidine from adrenergic alpha2A receptor (unknown origin)

[22] = target: Alpha-1B adrenergic receptor (Homo sapiens, UniProt P35368)
Description: Displacement of [125I]HEAT from adrenergic alpha1B receptor (unknown origin)

D(1B) dopamine receptor = D(1B) dopamine receptor (Homo sapiens, UniProt P21918)
Description: Displacement of [3H]SCH23390 from dopamine D5 receptor (unknown origin)

D(4) dopamine receptor = target: T3, D(4) dopamine receptor (Homo sapiens, UniProt P21917)
T3 sequence (P21917 whole entry): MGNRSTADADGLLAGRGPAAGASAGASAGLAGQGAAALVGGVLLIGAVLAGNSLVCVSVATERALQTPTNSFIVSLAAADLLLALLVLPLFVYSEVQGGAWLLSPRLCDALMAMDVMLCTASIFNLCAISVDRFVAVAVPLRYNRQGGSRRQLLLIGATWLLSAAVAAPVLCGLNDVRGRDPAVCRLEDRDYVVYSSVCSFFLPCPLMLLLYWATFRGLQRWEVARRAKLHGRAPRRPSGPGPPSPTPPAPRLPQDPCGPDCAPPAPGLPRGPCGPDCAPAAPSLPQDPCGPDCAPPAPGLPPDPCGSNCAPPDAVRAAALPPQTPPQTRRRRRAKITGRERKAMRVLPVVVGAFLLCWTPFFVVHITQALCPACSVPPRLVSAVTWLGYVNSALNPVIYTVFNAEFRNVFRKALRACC
Description: Displacement of [3H]N-Methylspiperone from dopamine D4 receptor (unknown origin)

D(3) dopamine receptor = D(3) dopamine receptor (Homo sapiens, UniProt P35462)
Description: Displacement of [3H]N-Methylspiperone from dopamine D3 receptor (unknown origin)

[23] = target: 5-hydroxytryptamine receptor 6 (Homo sapiens, UniProt P50406)
Description: Displacement of [3H]LSD from 5-HT6 receptor (unknown origin)

[24] = target: 5-hydroxytryptamine receptor 7 (Homo sapiens, UniProt P34969)
Description: Displacement of [3H]LSD from 5-HT7 receptor (unknown origin)

[25] = target: T4, 5-hydroxytryptamine receptor 3A (Homo sapiens, UniProt P46098)
T4 sequence (P46098 whole entry): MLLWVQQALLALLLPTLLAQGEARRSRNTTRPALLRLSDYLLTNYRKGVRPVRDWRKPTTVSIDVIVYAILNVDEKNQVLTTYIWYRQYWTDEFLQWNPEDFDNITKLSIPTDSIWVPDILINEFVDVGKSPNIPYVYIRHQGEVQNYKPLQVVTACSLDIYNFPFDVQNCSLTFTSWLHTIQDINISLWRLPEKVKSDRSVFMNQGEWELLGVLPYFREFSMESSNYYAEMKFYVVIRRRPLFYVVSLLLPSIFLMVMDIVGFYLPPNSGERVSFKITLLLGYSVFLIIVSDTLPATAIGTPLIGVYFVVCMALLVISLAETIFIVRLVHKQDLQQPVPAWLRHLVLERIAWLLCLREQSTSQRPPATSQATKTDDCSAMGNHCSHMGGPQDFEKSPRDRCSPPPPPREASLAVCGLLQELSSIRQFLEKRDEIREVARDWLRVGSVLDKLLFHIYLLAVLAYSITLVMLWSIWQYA
Description: Displacement of [3H]GR65630 from 5-HT3 receptor (unknown origin)

[26] = target: 5-hydroxytryptamine receptor 5A (Homo sapiens, UniProt P47898)
5-hydroxytryptamine receptor 5A, sequence (P47898 whole entry): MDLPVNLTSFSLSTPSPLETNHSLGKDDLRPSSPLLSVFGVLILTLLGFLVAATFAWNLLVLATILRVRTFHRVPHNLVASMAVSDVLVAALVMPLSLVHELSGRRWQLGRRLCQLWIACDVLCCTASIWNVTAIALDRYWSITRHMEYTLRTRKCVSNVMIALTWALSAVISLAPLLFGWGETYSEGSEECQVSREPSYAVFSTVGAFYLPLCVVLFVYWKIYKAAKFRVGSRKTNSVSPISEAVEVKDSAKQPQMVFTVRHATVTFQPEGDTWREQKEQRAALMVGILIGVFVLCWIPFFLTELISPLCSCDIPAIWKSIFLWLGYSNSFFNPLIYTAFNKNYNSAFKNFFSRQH
Description: Displacement of [3H]LSD from 5-HT5A receptor (unknown origin)

[27] = target: 5-hydroxytryptamine receptor 2C (Homo sapiens, UniProt P28335)
Description: Displacement of [3H]Mesulergine from 5-HT2C receptor (unknown origin)

[28] = target: 5-hydroxytryptamine receptor 2B (Homo sapiens, UniProt P41595)
Description: Displacement of [3H]LSD from 5-HT2B receptor (unknown origin)

[29] = target: 5-hydroxytryptamine receptor 1E (Homo sapiens, UniProt P28566)
Description: Displacement of [3H]5HT from 5-HT1E receptor (unknown origin)

[30] = target: 5-hydroxytryptamine receptor 1B (Homo sapiens, UniProt P28222)
Description: Displacement of [3H]5-CT from 5-HT1B receptor (unknown origin)

[31] = target: Muscarinic acetylcholine receptor M5 (Homo sapiens, UniProt P08912)
Description: Displacement of [3H]QNB from muscarinic M5 receptor (unknown origin)

SMILES | Ki [1] | Ki [2] | Ki [3] | Ki (Mu-type opioid receptor) | Ki [4] | Ki [5] | Ki (Histamine H3 receptor) | Ki [7] | Ki [8] | Ki [9] | Ki (D(2) dopamine receptor) | Ki (D(1A) dopamine receptor) | Ki ([17]; read-out: Ki) | Ki [18] | Ki [19] | Ki (Histamine H2 receptor) | Ki [22] | Ki (D(1B) dopamine receptor) | Ki (D(4) dopamine receptor) | Ki [25] | other results
CN1CCc2c(c3cccc4c3n2CCc2ccccc2-4)C1 | > 10 µM | > 10 µM | > 10 µM | > 10 µM | > 10 µM | > 10 µM | > 10 µM | > 10 µM | > 10 µM | > 10 µM | > 10 µM | > 10 µM | 1.95 µM | > 10 µM | > 10 µM | 0.943 µM | 2.24 µM | > 10 µM | 1.38 µM and 1.23 µM | 0.529 µM | Ki ([6]; read-out: Ki): 0.22 µM; Ki (Histamine H1 receptor): > 10 µM; Ki [10]: 4.35 µM; Ki ([11]; read-out: Ki): 0.293 µM; Ki ([12]; read-out: Ki): 0.286 µM; Ki [13]: 0.257 µM; Ki [14]: 0.625 µM; Ki [15]: > 10 µM; Ki ([16]; read-out: Ki): 0.413 µM; Ki [20]: 0.446 µM; Ki [21]: 0.407 µM; Ki (D(3) dopamine receptor): > 10 µM; Ki [23]: > 10 µM; Ki [24]: 0.195 µM; Ki [26]: > 10 µM; Ki [27]: > 10 µM; Ki [28]: 0.104 µM; Ki [29]: > 10 µM; Ki [30]: 1.22 µM; Ki [31]: > 10 µM
CN1CCc2c(c3cccc4c3n2-c2ccccc2CC4)C1 | > 10 µM | – | – | > 10 µM | > 10 µM | – | > 10 µM | > 10 µM | > 10 µM | > 10 µM | – | > 10 µM | – | > 10 µM | > 10 µM | – | – | – | > 10 µM | > 10 µM | Ki ([17]; read-out: pKi (converted)): > 10 µM; Ki (D(3) dopamine receptor): > 10 µM
CN1CC2c3ccccc3Oc3ccc(Cl)cc3C2C1 (centres undefined) [ASENAPINE MALEATE] | – | – | – | – | – | – | – | – | – | – | – | – | – | – | – | 0.0057 µM | – | – | – | – | –
Cn1ccc2cc3c(cc21)CCN3C(=O)Nc1cccnc1 | – | – | – | – | – | – | – | – | – | – | – | – | – | – | – | – | – | – | – | – | Ki [28]: 0.012 µM
CN1CCc2c(c3cccc4c3n2Cc2ccccc2C4)C1 | > 10 µM | > 10 µM | > 10 µM | > 10 µM | > 10 µM | > 10 µM | > 10 µM | > 10 µM | > 10 µM | > 10 µM | > 10 µM | > 10 µM | 1.35 µM | > 10 µM | > 10 µM | > 10 µM | > 10 µM | > 10 µM | > 10 µM | > 10 µM | Ki ([6]; read-out: pKi (converted)): > 10 µM; Ki ([11]; read-out: pKi (converted)): > 10 µM; Ki ([12]; read-out: pKi (converted)): > 10 µM; Ki ([16]; read-out: pKi (converted)): > 10 µM; Ki [26]: > 10 µM; Ki [27]: > 10 µM; Ki [29]: > 10 µM; Ki [31]: > 10 µM
